Measurements reported in paper PMC7922564, “Molecular Insights into an Antibiotic Enhancer Action of New Morpholine-Containing 5-Arylideneimidazolones in the Fight against MDR Bacteria” (International Journal of Molecular Sciences, 2021).

Tests used:
[1] = tested on: S. aureus LG-N017; assay: MIC reduction assay (antibiotic adjuvant), S. aureus LG-N017; type: cell-based, Staphylococcus aureus
Description: (§1) The adjuvant properties of compounds 14–16 in S. aureus clinical isolates were next tested in combination with oxacillin and the penicillinase-susceptible β-lactam antibiotic, ampicillin. The second β-lactam antibiotic was chosen based on its vulnerability to enzymatic hydrolysis, another important resistance mechanism in S. aureus against penicillin. Therefore, the results of the MIC reduction assay obtained on the activity of arylideneimidazolones combined with oxacillin and ampicillin, respectively, might provide further insights into the possible mechanism of action of the compounds. Complete results are presented in Supplementary (Tables S4 and S5), while condensed in Figure 6, in the case of desired activity noted. […] One possible explanation for the lack of adjuvant activity of compounds in some of the strains selected for this study might be that these strains express PBP2a only when induced by the antibiotic, while others, for which potentiating activity of compounds was observed, produce this protein in high levels straight away.
(§2) Determination of MIC values, i.e., intrinsic antibacterial activity, of products and antibiotics (oxacillin, ampicillin, vancomycin, ciprofloxacin, and erythromycin) in the presence and absence of compounds tested was conducted by the use of a standard 2-fold microdilution method in cation-adjusted Mueller Hinton broth following the Clinical and Laboratory Standards Institute (CLSI) guidelines. The MIC values were detected using an Infinite M200 pro Tecan microplate reader (Tecan® France, SA-Lyon, France). MIC determinations were conducted in 96-well microtiter plates and repeated 3–4 times.
(§3) Initially, MICs of a series of imidazolone derivatives were assessed against susceptible (reference) and MDR strains of staphylococci. Next, MIC values of the aforementioned antibiotics were determined in the absence and presence of imidazolone derivatives to assess the chemosensitizing effect of these compounds. […] 5-arylideneimidazolones and 5-arylidenethiazolones, which precipitated after addition to bacterial suspension in MH II medium, were tested at the highest concentrations at which precipitation was not observed. […] Antibacterial activity of compounds and antibiotics ampicillin, vancomycin, ciprofloxacin, and erythromycin was recorded as the lowest concentration of molecules able to inhibit bacterial growth after 18 h incubation at 37 °C. The incubation of bacterial strains exposed to oxacillin paired with compounds tested was conducted at 35 °C and extended to 24 h due to frequent occurrence of heterogeneity among MRSA strains. The results are presented as activity gain (A) parameter which was calculated as ratio of MIC of a certain antibiotic (MICAnt) to its MICAnt+Comp, observed in combination with a tested compound (7, 12–16, 19, or 20; Equation (1)). (1) A=(MICAnt/MICAnt+Comp)

[2] = tested on: K. aerogenes CM-64 (overexpression of AcrAB-TolC); assay: MIC of compounds, K. aerogenes CM-64; type: cell-based; conditions: Klebsiella aerogenes, read-out: Minimal Inhibitory Concentration (MIC)
Description: (§4) A subset of compounds, namely 7, 12–16, 19, 20, was also examined for the potential to increase the effectiveness of the antibiotics chloramphenicol, erythromycin, doxycycline, and the fluoroquinolone antibiotic norfloxacin, which all are substrates for AcrAB-TolC in K. aerogenes. In addition to strain Ea-289, the adjuvant-like effect of the compounds was investigated in strain CM-64, which also overexpresses the AcrAB-TolC efflux pump, although it has no changes in porin content, and in the Ea-289 derivatives, i.e., Ea-294 and Ea-308, which are devoid of AcrAB (Table S17, Supplementary).
as §2
(§5) MIC values of 5-arylideneimidazolone derivatives were determined following CLSI recommendations as in the methods described for S. aureus (Section 3.3.1).

[3] = tested on: S. aureus MM-O021; assay: MIC of compounds, S. aureus MM-O021; type: cell-based; conditions: Staphylococcus aureus; MM-O021 (MRSA)
Description: (§6) Compounds 14–16 were tested further for their adjuvant-like effect with a set of ten additional S. aureus isolates. Firstly, MIC values of the molecules were evaluated in two clinical MSSA isolates (MM-O058, MM-N072), seven MRSA (USA300 LAC, 5328, LG-N017, MM-O021, R45-CC45, R46-CC22, COL) and one VISA strain (Mu50). Detailed results are presented in the Supplementary section (Table S3).
as §2
as §3, with “The incubation of bacterial strains exposed to oxacillin paired with compounds tested was conducted at 35 °C and extended to 24 h due to frequent occurrence of heterogeneity among MRSA strains.” left out, “(1) A=(MICAnt/MICAnt+Comp)” left out

[4] = tested on: AcrAB-TolC efflux pump in K. aerogenes strain Ea-289; assay: Real-time efflux (RTE) assay, 1,2'-dNA extrusion; type: cell-based, Klebsiella aerogenes; conditions: compound 100 µM; IE=100% total inhibition of efflux
Description: Compounds 7, 12–16, 19, and 20 were also assessed for their EPI property in K. aerogenes strain Ea-289 with the use of a real-time efflux (RTE) assay. Results for compounds 16 and 20 were previously described. The experiment is based on the measurement of the extrusion of a fluorescent dye from bacterial cells overproducing efflux pump transporters in the presence and absence of compounds tested. The dye used in this assay, 1,2’ –dinaphthylamine (1,2’-dNA), is a substrate for the AcrAB-TolC efflux pump, and is strongly fluorescent upon incorporation into a phospholipid bilayer, although it is almost non-fluorescent in an aqueous solution [37, 38].
A likewise strong blocking efficacy (IE = 83 %) was also noticed for compound 12, while the lowest inhibitory effect was found for compound 13 (IE = 23 %).
The inhibitory activity of 5-arylideneimidazolone derivatives towards AcrAB-TolC mediated efflux of 1,2’-dNA was detected in K. aerogenes strain Ea-289 by using a real-time fluorometric method. In a first step, bacterial cells were loaded with the environment-sensitive fluorescent membrane probe, 1,2’-dNA, in the presence of the EPI carbonyl cyanide m-chlorophenylhydrazone (CCCP) which inactivated the pump by dissipating membrane potential. Next, compounds tested were added at the concentration of 100 µM and the efflux was energizing by automated injection of glucose at a dose of 50 µM. The fluorescence intensity was measured in a microplate reader (Tecan) with an excitation wavelength of λex = 370 nm and an emission wavelength of λem = 420 nm.

[5] = tested on: S. aureus MM-N072; assay: MIC reduction assay (antibiotic adjuvant), S. aureus MM-N072; type: cell-based, Staphylococcus aureus
Description: as §1, §2, §3

[6] = tested on: K. aerogenes CM-64; assay: MIC reduction assay (antibiotic adjuvant), K. aerogenes CM-64; type: cell-based, Klebsiella aerogenes; conditions: doxycycline, chloramphenicol, norfloxacin, erythromycin;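 note: compound at no more than one quarter of its own MIC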
Description: as §4, §3, §5

[7] = tested on: S. aureus COL; assay: MIC reduction assay (antibiotic adjuvant), S. aureus COL; type: cell-based, Staphylococcus aureus; conditions: ampicillin
Description: as §1, with “away. […]” for “away.”
(§7) Initially, MICs of a series of imidazolone derivatives were assessed against susceptible (reference) and MDR strains of staphylococci. Next, MIC values of the aforementioned antibiotics were determined in the absence and presence of imidazolone derivatives to assess the chemosensitizing effect of these compounds. […] Antibacterial activity of compounds and antibiotics ampicillin, vancomycin, ciprofloxacin, and erythromycin was recorded as the lowest concentration of molecules able to inhibit bacterial growth after 18 h incubation at 37 °C. […] The results are presented as activity gain (A) parameter which was calculated as ratio of MIC of a certain antibiotic (MICAnt) to its MICAnt+Comp, observed in combination with a tested compound (7, 12–16, 19, or 20; Equation (1)). […]

[8] = tested on: S. aureus USA300 LAC; assay: MIC reduction assay (antibiotic adjuvant), S. aureus USA300 LAC; type: cell-based, Staphylococcus aureus; design: key: A = MIC of antibiotic alone / MIC with compound
Description: as §1, §2, §3

[9] = tested on: S. aureus 5328; assay: MIC reduction assay (antibiotic adjuvant), S. aureus 5328; type: cell-based, Staphylococcus aureus
Description: as §1, §2, §3

[10] = tested on: S. aureus R45-CC45; assay: MIC reduction assay (antibiotic adjuvant), S. aureus R45-CC45; type: cell-based, Staphylococcus aureus; conditions: ampicillin; for A (activity gain): range over repetitions
Description: as §1, §2
as §7, with “compounds. […] 5-arylideneimidazolones and 5-arylidenethiazolones, which precipitated after addition to bacterial suspension in MH II medium, were tested at the highest concentrations at which precipitation was not observed.” for “compounds.”

[11] = tested on: S. aureus LG-N017; assay: MIC of compounds, S. aureus LG-N017; type: cell-based; conditions: Staphylococcus aureus; LG-N017 (MRSA)
Description: as §6, §2
as §7, with “compounds. […] 5-arylideneimidazolones and 5-arylidenethiazolones, which precipitated after addition to bacterial suspension in MH II medium, were tested at the highest concentrations at which precipitation was not observed.” for “compounds.”

[12] = tested on: K. aerogenes Ea-294, Ea-308; assay: MIC reduction assay (antibiotic adjuvant), K. aerogenes Ea-294, Ea-308; type: cell-based, Klebsiella aerogenes; conditions: doxycycline, chloramphenicol, norfloxacin, erythromycin;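 note: compound at no more than one quarter of its own MIC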
Description: as §4, §3, §5

`NC1=N/C(=C\c2ccc(-c3ccccc3)cc2)C(=O)N1CCN1CCOCC1` [Compound 14] was tested, and the “A (activity gain)” value ([1]; ampicillin) was 2, the “A (activity gain)” value ([1]; erythromycin) was 1 and the MIC [2] was over 2000 µM. For the same compound, the MIC [3] was at least 500 µM, the “Inhibition efficiency (IE) towards extrusion of 1,2'-dNA” value (“Inhibition efficiency” for short) [4] was 57% and the “A (activity gain)” value ([5]; ampicillin) was 1. The “A (activity gain)” value ([5]; erythromycin) was 1, the “A (activity gain)” value [6] was 1 and the “A (activity gain)” value [7] was 1. For the same compound, the “A (activity gain)” value ([8]; ampicillin) was 1, the “A (activity gain)” value ([8]; ciprofloxacin) was 1 and the “A (activity gain)” value ([8]; erythromycin) was 1. The “A (activity gain)” value ([9]; ampicillin) was 2, the “A (activity gain)” value ([9]; erythromycin, S. aureus 53284) was 1 and the “A (activity gain)” value [10] was 2-4. The MIC [11] was at least 500 µM and the “A (activity gain)” value [12] was 1.
`NC1=N/C(=C\c2ccc(-c3ccccc3)cc2)C(=O)N1CCCN1CCOCC1` [Compound 15] was tested, and the “A (activity gain)” value ([1]; ampicillin) was 1, the “A (activity gain)” value ([1]; erythromycin) was 1 and the MIC [2] was over 2000 µM. The MIC [3] was 250 to 500 µM, the “Inhibition efficiency” value [4] was 72% and the “A (activity gain)” value ([5]; ampicillin) was 1. For the same compound, the “A (activity gain)” value ([5]; erythromycin) was 1, the “A (activity gain)” value [6] was 1 and the “A (activity gain)” value [7] was 1. The “A (activity gain)” value ([8]; ampicillin) was 2, the “A (activity gain)” value ([8]; ciprofloxacin) was 1 and the “A (activity gain)” value ([8]; erythromycin) was 1. For the same compound, the “A (activity gain)” value ([9]; ampicillin) was 2, the “A (activity gain)” value ([9]; erythromycin, S. aureus 53284) was 1 and the “A (AMP), gain of activity, arithmetic mean” value ([10]; arithmetic mean of 3-4 repetitions) was 6. For the same compound, the “A (activity gain)” value [10] was 4-8, the MIC [11] was 250 µM and the “A (activity gain)” value [12] was 1.
In the case of `NC1=N/C(=C\c2cccc(Oc3ccccc3)c2)C(=O)N1CCCN1CCOCC1` [Compound 16], the “A (activity gain)” value ([1]; ampicillin) is reported as 1, the “A (activity gain)” value ([1]; erythromycin) is reported as 1 and the MIC [2] is reported as over 2000 µM. The MIC [3] was 250 µM, the “A (activity gain)” value ([5]; ampicillin) was 1 and the “A (activity gain)” value ([5]; erythromycin) was 1. The “A (activity gain)” value [7] was 1, the “A (activity gain)” value ([8]; ampicillin) was 1 and the “A (activity gain)” value ([8]; ciprofloxacin) was 1. The “A (activity gain)” value ([8]; erythromycin) was 1, the “A (activity gain)” value ([9]; ampicillin) was 1 and the “A (activity gain)” value ([9]; erythromycin, S. aureus 53284) was 1. For the same compound, the “A (activity gain)” value [10] was 1 and the MIC [11] was 250 µM.
With `NC1=N/C(=C\c2ccc3c(c2)Cc2ccccc2-3)C(=O)N1CCCN1CCOCC1` [Compound 19] the MIC [2] was over 2000 µM, the “Inhibition efficiency” value [4] was 90% and the “A (activity gain)” value [6] was 1. The “A (activity gain)” value [12] was 1.
